Laboratory results: patent publication US8609361B2, “Real time electrophysiological testing of agents of interest for treatment of amyloid-type diseases” (Universidad de Concepcion, priority 2007, dated 2013)

Assays:
[1] = system: AMPA and NMDA receptors; conditions: reported in the art; cited from earlier work
[2] = system: neurons; assay: whole-cell patch clamp, membrane potential; format: cell-based, mice; conditions: low concentrations (preferably less than 1 μM, more preferably 0.5 μM Aβ)
[3] = Aβ peptide aggregation in solution followed by turbidity (optical density); format: physicochemical; conditions: about 100 μM peptide in PBS pH 7.4, stirring about 600 rpm, about 37° C., after 120 minutes
Experimental: FIG. 2A is a graph indicating the Aβ peptide aggregation structure progress in solution. […] The solution absorbency measurement is observed as a change in optical densities (D.O.), which reflects formation of complex structures, amyloid aggregates. Images B-D correspond to ultra micro photographs obtained with an electronic microscope. The recognition of different structures formed during the aggregation process is possible. Aggregates obtained at 120 min and fibers obtained at 5 days of aggregation are readily noticed.
In order to generate the working solution, these portions are defrosted under a laminar flow bell and diluted in sterile PBS at pH 7.4. 700 μl PBS are added to the 25 μl of each peptide portion, obtaining a final work volume of 725 μl, with peptide at an approximate concentration of 100 μM. This peptide solution is defined as “Soluble Peptide” and it is mainly formed by Aβ peptide monomers. This soluble peptide is induced to aggregation by stirring at approximately 600 rpm at temperature around 37° C. During this process, the solution optical density is determined at 405 nm every 15 minutes for a total time of 120 minutes. […] This solution is called “Aggregate Peptide”, and electronic microscope inspection has determined that it corresponds to a heterogeneous structure population, among which amorphous aggregate shapes, 100 nm protofibril, and short fibers are noted.

[4] = system: plasma membrane of hippocampal neurons; assay: cell-attached to perforated patch-clamp recording with the agent in the glass pipette; format: cell-based, mice
Experimental: In absence of Aβ or gramicidin, cell attached recordings are stable for more than 60 min.
Control is the charge in cell-attached configuration and reflects the recording of the glass pipette properties partially compensated to visualize part of the transient. Negative pressure reflects the charge obtained with a routine whole-cell configuration. Gramicidin and amphotericin are antibiotics routinely used to generate perforates. Data are ±S.E. average (n=6; different experiments).
The experimental evidence of the invention allows establishing that conductance changes may be the result of the forming of a cationic-type pore, very similar to that generating gramicidin. […] Basically, this invention procedure is formed by two stages: • b) Exposing a small area or patch of plasma membrane, in a preferable embodiment said membranes are neuron membranes, to peptide aggregates under study and/or to active ingredients, and/or compounds of interest. • c) Determining, measuring, and quantifying electric parameters of membranes exposed to these aggregates; in a preferable embodiment, the parameter is conductance (inverse of electrical resistance resulting from resistance range and the glass pipette potential).
The method described in this invention uses a variation of the technique known as patch cell-attached to study the Aβ peptide effects. In this invention embodiment, records very stable in time are obtained and maintained for more than 5 minutes, preferably for more than 15 minutes, and more preferably for more than 30 minutes. At the same time, this embodiment provides an intrinsic noise level under 5 pA, preferably under 3 pA, and more preferably under 1 pA, which may be due to the registry being obtained from a small cell area that normally contains very few ionic channels. […] However, the most important characteristics in this event is the evidence of the fast capacitative resistance component, which reflects formation of a perforated form that supports the conclusion that pores are generated in the membrane (see FIGS. 1 and 2).
Animals are treated and handled according to the NIH recommendations. 18-day pregnant mice (C57BL7J6) are anesthetized with ether and sacrificed through cervical dislocation. Embryo are quickly removed and beheaded with sterile material. Brains are removed and kept in cold Hank medium.
The midbrain is separated in order to expose the hippocampus area, which is dissected from the brain and mechanically dispersed using trypsin, collagenase, and DNAsa III. Neurons are placed (“planted”) in 35 mm dishes covered with poly-L-lisine at a density of 350000 neurons per ml.
Neurons are left to grow in vitro during 12 days, and then recorded using electro-physiology. The means of culture is 80% MEM, 2 mM glutamine, and 10% bovine fetal serum. The means are changed every three days. Every reagent used is dissolved in PBS, which is used as control.
Peptide aggregates are diluted to working concentration and were made at concentrations from 0.01 μM to 50 μM, preferably between 0.03 and 20, more preferably 0.05 and 10 μM. This aggregate is diluted in an internal solution (called so because it artificially imitates intra-cell fluid) mainly formed by KCl, BAPTA, calcium, and ATP, as previously described. The aggregate is diluted in this solution, which is loaded into the pipette to be used for Patch-Clamp. This solution is taken into a tuberculin syringe, from which the needle has been removed, and a small capillary-HPLC is added. With this modified syringe, the internal solution volume is taken with no Aβ aggregates as control. It may also be used with the aggregate and/or other molecules of biologic interest in the event evaluations and determining the said molecules' pharmacologic activities is required.
Using the capillary-HPLC in the syringe, the internal solution is introduced into the glass pipette, slowly removing it as the pipette becomes full in order to reduce bubbles. […]

Compound: N#Cc1cc2[nH]c(=O)c(=O)[nH]c2cc1[N+](=O)[O-] [CNQX]
- inhibition of peptide effects on calcium levels [1]: inhibited

Compound: Aβ: Synthetic peptide Aβ1-40 (TOCRIS or Sigma), human sequence of β-amyloid peptide, aggregated by stirring at 37° C.
- changes in membrane potential [2]: have not shown significant changes in membrane potential
- solution optical density at 405 nm [3]: 0.2-0.3
- conversion of the cell-attached recording into a perforated recording (increased capacitative peak and late conductance) ([4]; 500 nM in the glass pipette solution, FIG. 1A): spontaneously convert the recording into a perforated variation of the technique
- charge transferred by the cellular membrane during a 10 mV pulse ([4]; FIG. 3, n=6): form perforations in the membrane
- input current following the high-resistance seal formation ([4]; in the presence of Aβ): −40 to −70 pA
- current range ([4]; low-concentration peptide, few pores in the cell): ≤ 50 pA
- membrane de-polarization ([4]; measurements and recordings of the invention method): has not been detected

Compound: gramicidin
- development of perforation ([4]; 50 μM in the glass pipette, FIG. 1B): typical perforation
